Data as given in patent US12319752B2, “Heparin-binding cationic peptide self-assembling peptide amphiphiles useful against drug-resistant bacteria” (priority 2016, dated 2025).
Residues, ends and D or L forms follow the SMILES beside them. *: point of attachment. Palmitoyl = CCCCCCCCCCCCCCCC(=O)*

Columns and labels:
S. aureus = test: Bacterial growth inhibition (growth curves, OD562, 20 h); format: cell-based, Staphylococcus aureus (ATCC #25923)
Protocol: Gram-positive (S. aureus and MRSA) and Gram-negative (E. coli and MDR E. coli) bacteria were incubated with peptide concentrations ranging from 20 to 100 μM, and time-lapsed bacterial growth was monitored for 20 hours by determining the optical density at 562 nm (O.D. 562 nm). […] At the highest concentration tested (100 μM), the time to exponential growth phase of S. aurues was delayed by about 18 h (FIG. 5B), and was prolonged by almost 13 h for MRSA (FIG. 5A), while bacteria incubated without ACA-PA entered the exponential growth phase within 4 h. Gram-positive bacteria were also susceptible to the ACA-PA even below their CMC.
This assay was performed to investigate the inhibitory effects of each peptide against Gram-positive Staphylococcus aureus (S. aureus, ATCC #25923) and methicillin-resistant S. aureus (MRSA, ATCC #43300), as well as Gram-negative Escherichia coli (E. coli, ATCC #25922), and multidrug-resistant E. coli (MDR E. coli, ATCC #BAA-2471). In all experiments, solutions of each peptide at the concentrations from 20 μM to 100 μM in 3% Tryptic Soy Broth (TSB) media were freshly prepared. A single colony of bacteria was isolated from a stock agar plate and cultured overnight in 4 mL of 3% TSB on a shaking incubator set at 200 rpm and 37° C. The bacteria culture was adjusted to an optical density at 562 nm (OD562) to about 0.52 (10^9 cells/mL), and the resulting bacteria suspension was subsequently diluted to about 10^6 colony forming units (CFU) per mL in each sample. The control samples were bacteria incubated in TSB media without peptides. The bacteria were incubated inside a spectrophotometer (Spectra-Max Paradigm, Molecular Devices, Sunnyvale, CA) at 37° C. under static conditions for 20 h, and the bacterial growth curves were measured in terms of turbidity at OD562 every 2 minutes. The normalized OD562 values of samples were calculated by subtracting the […].

E. coli = test: Viable colony count assay (bactericidal effect, 4 h); format: cell-based, Escherichia coli (ATCC #25922)
Protocol: (§1) The bactericidal effects of the peptides were examined using a viable colony count assay as well as the live/dead staining assay. For the viable colony count assay, bacteria were treated with peptides for 4 h and the resulting viable bacterial density of each sample was expressed by log10[CFU/mL]. For the Gram-positive bacteria tested, the decrease in bacterial density was dependent on the concentration of the ACA-PA (FIG. 8A). […] As for Gram-negative E. coli and MDR E. coli bacteria (FIG. 8B), the ACA nanorods, wherein the PA were added at a concentration above their CMC, had potent bactericidal effects. For example, the ACA nanorods at concentrations over 60 μM reduced the colony forming units of Gram-negative bacteria by about a five log unit reduction after 4 h compared with the untreated negative control sample.
(§2) The viable count assay was performed to quantify the bactericidal activity of each peptide. Stock solutions of peptides were diluted in 3% TSB media to concentrations ranging from 20 μM to 100 μM immediately before experiments. Heparin-ACA-PA were also prepared by mixing the ACA-PA stock solution with heparin (sodium salt from porcine intestinal mucosa, Sigma, St. Louis, MO) to 1:1, 1:2 and 1:3 weight ratios in water, and a final concentration of ACA-PA in the heparin-ACA-PA at each heparin weight ratio was adjusted to 80 μM for each experiment. The bacteria (10^6 CFU/mL) were incubated with peptides at 37° C. for 4 h. After incubation, serial dilutions of samples were plated on TSB agar and then incubated at 37° C. overnight. The colonies from each spot were manually counted, and the CFU number for each sample was determined. Experiments were conducted in triplicate and results were expressed as the log 10 values of the CFU number in each sample. Data were expressed by stand error of the mean (±S.E.M.) and N=3, *p<0.05 compared with control samples and #p<0.05 compared with bacteria treated with 40 μM of ACA-PA.

MDR E. coli = test: as above; format: cell-based, multidrug-resistant E. coli (MDR E. coli, ATCC #BAA-2471)
Protocol: as §1
In addition, ACA-PA were mixed with heparin at various weight ratios (1:1, 1:2, and 1:3 ACA-PA to heparin ratios) to block the Cardin motif groups on the PA. The ACA-PA concentration used to treat bacteria (MRSA and MDR E. coli) was a constant 80 μM and only varied in the concentration of heparin.
as §2

[1] = system: LPS (from Escherichia coli O111:B4); test: LPS binding, BODIPY TR cadaverine (BC) probe displacement assay; conditions: 20 μM to 100 μM peptide, 100 μg/mL LPS
Protocol: The binding of each peptide at various concentrations to LPS was determined by the capability of displacing the BC probes bound with LPS. The fluorescent BC probe was used as a probe to determine the level of peptide bound with LPS. BC probe binds to native LPS and particularly target the lipid A portion. The fluorescent intensity of BC probe decreases as it binds to LPS. […] For instance, the LPS binding factor of samples containing 60 μM of CVK-PA was as double as the 40 μM sample.
The LPS binding affinity of peptide was examined with the BODIPY TR cadaverine (BC) fluorescent probe displacement assay as previously described. Stock solution of each peptide was diluted to predetermined concentrations with 10 mM HEPES buffer (pH=7.5, Thermo Fisher Scientific, Waltham, MA, USA). […] Followed by incubation for 15 minutes in room temperature, the fluorescent intensity was measured using a spectrophotometer at an excitation wavelength of 580 nm and an emission wavelength of 620 nm. Finally, the LPS binding factor of each sample was calculated using the equation: […]
When peptides bind to LPS and displace the BC probe, fluorescence intensity of the probe is increased. LPS binding affinity of each peptide was then analyzed by the fluorescent intensity of the displaced BC probe. […]

## CCCCCCCCCCCCCCCC(=O)N[C@H](C(=O)N[C@H](C(=O)N[C@H](C(=O)N[C@H](C(=O)N[C@@H](CCCCN)C(=O)N[C@@H](CCCCN)C(=O)N[C@@H](CCCCN)C(=O)N[C@@H](CCCCN)C(=O)NCC(=O)N[C@@H](C)C(=O)N[C@@H](CCCCN)C(=O)N[C@@H](CCCCN)C(=O)N[C@@H](C)C(=O)N[C@@H](CCCNC(=N)N)C(=O)N[C@@H](C)C(=O)N[C@@H](C)C(=O)N[C@@H](CCCCN)C(=O)N[C@@H](CCCCN)C(=O)N[C@@H](C)C(=O)N[C@@H](CCCNC(=N)N)C(=O)N[C@@H](C)C(=O)O)C(C)C)C(C)C)C(C)C)C(C)C [ACA-PA, C16-V4K4G(AKKARA)2 (SEQ ID NO: 7)] (Palmitoyl-VVVVKKKKGAKKARAAKKARA-OH; N-terminus and C-terminus assumed)
S. aureus; 100 μM
  delay of time to exponential growth phase: about 18 h
S. aureus; 20 to 100 μM, 20 h
  bacterial growth inhibition: remarkably inhibited the proliferation
S. aureus; below the CMC
  susceptibility of bacterial growth: susceptible
E. coli; E. coli (Gram-negative), 60 to 100 μM
  decrease in bacteria density: 10,000 fold
E. coli; E. coli, concentrations lower than CMC, 4 h
  reduction in bacteria density: no significant reduction in Gram-negative bacteria density
E. coli; E. coli, over 60 μM, 4 h, vs untreated control
  reduction of colony forming units: five
MDR E. coli; MDR E. coli (Gram-negative), 60 to 100 μM
  decrease in bacteria density: 10,000 fold
MDR E. coli; MDR E. coli, 80 μM ACA-PA, 1:1, 1:2, 1:3 ACA-PA to heparin weight ratios
  number of viable bacteria colonies after mixing with heparin: positively proportional to the amount of heparin added
MDR E. coli; MDR E. coli, 80 μM ACA-PA, 1:3 ACA-PA to heparin weight ratio, 4 h
  toxicity towards bacteria after mixing with heparin: no toxicity towards bacteria
MDR E. coli; MDR E. coli, concentrations lower than CMC, 4 h
  reduction in bacteria density: no significant reduction in Gram-negative bacteria density
MDR E. coli; MDR E. coli, over 60 μM, 4 h, vs untreated control
  reduction of colony forming units: five
[1]
  LPS binding factor: highest LPS binding capability among the peptides investigated
